What was measured:
PDE4A1 = molecular target: T1, PDE4A1 (Mus musculus, UniProt O89084); assay: Fission yeast 5FOA growth assay, strain expressing PDE4A1; format: cell-based, murine; settings: 5FOA growth screen; for 1 Assay (20 uM), PDE 4A1: 20 uM compound; for 2 Assay (2 uM), PDE 4A1: 2 uM compound
T1 construct: targets used in the assays are full-length proteins (as opposed to simply the catalytic domain); expressed in transfected cells; host or cells: Schizosaccharomyces pombe, gene integrated at the cgs2 locus
T1 sequence (O89084 1-610 isoform O89084-2): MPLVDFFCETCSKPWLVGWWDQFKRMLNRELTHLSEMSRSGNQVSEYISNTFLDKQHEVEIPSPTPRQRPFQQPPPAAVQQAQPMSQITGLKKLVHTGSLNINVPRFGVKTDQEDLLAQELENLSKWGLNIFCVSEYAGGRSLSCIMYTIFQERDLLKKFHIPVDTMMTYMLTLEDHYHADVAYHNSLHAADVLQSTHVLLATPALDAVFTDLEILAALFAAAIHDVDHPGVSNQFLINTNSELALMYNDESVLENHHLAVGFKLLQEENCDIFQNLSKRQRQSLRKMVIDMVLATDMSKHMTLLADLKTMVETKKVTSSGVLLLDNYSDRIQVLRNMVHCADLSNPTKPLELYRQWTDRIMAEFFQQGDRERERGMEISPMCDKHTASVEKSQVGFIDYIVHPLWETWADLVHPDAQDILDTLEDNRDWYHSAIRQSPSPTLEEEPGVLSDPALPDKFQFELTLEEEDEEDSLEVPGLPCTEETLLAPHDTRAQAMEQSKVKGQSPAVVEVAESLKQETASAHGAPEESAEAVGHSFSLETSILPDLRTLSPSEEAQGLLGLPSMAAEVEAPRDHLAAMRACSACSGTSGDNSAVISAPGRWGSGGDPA
Description: (§1) High throughput drug screens were carried out at the Broad Institute's Chemical Biology Program screening facility (Broad Institute, Cambridge, Mass.). Depending upon the strain, cultures were pregrown to exponential phase in EMM complete medium containing from 0.5 to 2.5 mM cAMP to repress fbp1-ura4 transcription. […] Starting cell concentrations ranged from 0.5×10^5 to 4×10^5 cells/ml depending on the screening strain. […] Other positive control dishes contained 5 mM cAMP in the 5FOA medium. Cultures were grown for 48 hours at 30° C., sealed in an airtight container with moist paper towels to prevent evaporation. Optical densities (OD600) of cultures were measured using a microplate reader. Bioinformatic analysis of the results to determine composite Z scores was performed as previously described^30, 31.
(§2) Cells were pregrown in EMM medium [MP Biomedicals (Solon, OH), 3% glucose, filter-sterilized to avoid carmelization, which would introduce variability into the optical density of the medium] containing from 0 mM to 2.5 mM cAMP (or either 0.5 mM or 1.0 mM cGMP). This was to repress expression of the fbp1-ura4 reporter prior to exposure of cells to 5FOA medium. Cells were grown at 30° C. to exponential phase (approximately 10^7 cells/ml). […] Starting cell concentrations ranged from 0.5×10^5 to 4×10^5 cells/ml depending on the screening strain. […] Other positive control dishes contained 5 mM cAMP in the 5FOA medium for PDEs that lack appropriate control compounds. Cultures were grown for 48 hours at 30° C., sealed in an airtight container with moist paper towels to prevent evaporation. Optical densities (OD600) of cultures were measured using a microplate reader. Bioinformatic analysis of the results to determine composite Z scores was performed as previously described (1, 3).

PDE4B3 = molecular target: T2, PDE4B3 (Mus musculus, UniProt Q8VBU5); assay: Fission yeast 5FOA growth assay, strain expressing PDE4B3; format: cell-based, murine; settings: 5FOA growth screen; for 1 Assay (20 uM), PDE 4B3: 20 uM compound; for 2 Assay (2 uM), PDE 4B3: 2 uM compound
T2 construct: targets used in the assays are full-length proteins (as opposed to simply the catalytic domain); expressed in transfected cells; host or cells: Schizosaccharomyces pombe, gene integrated at the cgs2 locus
T2 sequence (Q8VBU5 1-721): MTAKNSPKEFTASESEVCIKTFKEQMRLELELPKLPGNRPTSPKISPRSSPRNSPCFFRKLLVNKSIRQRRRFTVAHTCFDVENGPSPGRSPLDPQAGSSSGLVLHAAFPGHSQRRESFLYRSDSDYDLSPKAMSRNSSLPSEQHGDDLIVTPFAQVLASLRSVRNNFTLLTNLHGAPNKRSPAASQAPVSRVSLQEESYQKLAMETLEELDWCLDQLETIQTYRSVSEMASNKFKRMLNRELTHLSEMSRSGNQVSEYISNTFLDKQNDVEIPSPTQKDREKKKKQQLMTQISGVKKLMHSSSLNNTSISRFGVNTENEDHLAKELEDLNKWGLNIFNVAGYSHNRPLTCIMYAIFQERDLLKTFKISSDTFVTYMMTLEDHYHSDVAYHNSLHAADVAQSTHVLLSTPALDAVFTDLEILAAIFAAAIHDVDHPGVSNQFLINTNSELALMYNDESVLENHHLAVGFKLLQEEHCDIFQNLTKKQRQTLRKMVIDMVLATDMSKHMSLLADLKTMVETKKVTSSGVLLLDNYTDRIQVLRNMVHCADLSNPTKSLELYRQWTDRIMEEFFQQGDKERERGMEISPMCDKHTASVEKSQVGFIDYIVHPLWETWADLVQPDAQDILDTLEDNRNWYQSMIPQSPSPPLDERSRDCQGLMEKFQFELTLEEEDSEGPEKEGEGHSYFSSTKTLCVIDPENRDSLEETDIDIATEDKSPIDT
Description: as §1, §2

| Compound | 1 Assay (20 uM), PDE 4A1 (PDE4A1) | 1 Assay (20 uM), PDE 4B3 (PDE4B3) | 2 Assay (2 uM), PDE 4A1 (PDE4A1) | 2 Assay (2 uM), PDE 4B3 (PDE4B3) |
| --- | --- | --- | --- | --- |
| COC(=O)C1=C(C)N(c2ccccc2F)C(=O)/C1=C\c1cccc(OC)c1O [2008, C21] | 18.97 ND ND ND ND | 24.16 ND ND ND ND | – | – |
| COC(=O)C1=C(C)N(c2ccc(C(C)C)cc2)C(=O)/C1=C\c1cccs1 [2008, O19] | 0.80 ND ND ND ND | −2.99 ND ND ND ND | – | – |
| COC(=O)C1=C(C)N(c2ccccc2)/C(=C/c2cccs2)C1=O [2008, K19] | −0.46 ND ND ND ND | −0.61 ND ND ND ND | – | – |

The remaining lines, values ahead:

| 1 Assay (20 uM), PDE 4A1 (PDE4A1) | 1 Assay (20 uM), PDE 4B3 (PDE4B3) | 2 Assay (2 uM), PDE 4A1 (PDE4A1) | 2 Assay (2 uM), PDE 4B3 (PDE4B3) | Compound |
| --- | --- | --- | --- | --- |
| 106.90 | 200.51 | – | – | Cc1ccc2c(c1)c1nc3ccccc3nc1n2C(C)C [Compound 41] |
| 98.84 | 70.26 | 27.01 | 37.54 | COC(=O)C1=C(C)N(C2CCCCC2)C(=O)/C1=C\c1cccs1 [Compound 22] |
| 64.18 | −0.26 | 17.41 | 22.05 | COC(=O)C1=C(C)N(c2ccccc2Cl)C(=O)/C1=C\c1cccs1 [Compound 27] |
